These are literature values, as cited in PMC10465233, “Lys-urea-Aad, Lys-urea-Cmc and Lys-urea-Cms as potential pharmacophores for the design of PSMA-targeted radioligands to reduce off-target uptake in kidneys and salivary glands” (Theranostics, 2023).

The term Ki denotes a measure of affinity in units of concentration, obtained from inhibition or displacement.

The test system of series [1] is 22Rv1 tumor model. Details: method as in PMID 34453203. Particulars: 1 h post-injection, 22Rv1, BALB/c nude; cited from earlier work.
For series [2], the target named is T1, PSMA (Homo sapiens, UniProt Q04609).
T1 construct: host or cells: LNCaP prostate cancer cells
Set-up: method as in PMID 36168623. Particulars: LNCaP cells; cited from earlier work.

T1 sequence (Q04609 whole entry): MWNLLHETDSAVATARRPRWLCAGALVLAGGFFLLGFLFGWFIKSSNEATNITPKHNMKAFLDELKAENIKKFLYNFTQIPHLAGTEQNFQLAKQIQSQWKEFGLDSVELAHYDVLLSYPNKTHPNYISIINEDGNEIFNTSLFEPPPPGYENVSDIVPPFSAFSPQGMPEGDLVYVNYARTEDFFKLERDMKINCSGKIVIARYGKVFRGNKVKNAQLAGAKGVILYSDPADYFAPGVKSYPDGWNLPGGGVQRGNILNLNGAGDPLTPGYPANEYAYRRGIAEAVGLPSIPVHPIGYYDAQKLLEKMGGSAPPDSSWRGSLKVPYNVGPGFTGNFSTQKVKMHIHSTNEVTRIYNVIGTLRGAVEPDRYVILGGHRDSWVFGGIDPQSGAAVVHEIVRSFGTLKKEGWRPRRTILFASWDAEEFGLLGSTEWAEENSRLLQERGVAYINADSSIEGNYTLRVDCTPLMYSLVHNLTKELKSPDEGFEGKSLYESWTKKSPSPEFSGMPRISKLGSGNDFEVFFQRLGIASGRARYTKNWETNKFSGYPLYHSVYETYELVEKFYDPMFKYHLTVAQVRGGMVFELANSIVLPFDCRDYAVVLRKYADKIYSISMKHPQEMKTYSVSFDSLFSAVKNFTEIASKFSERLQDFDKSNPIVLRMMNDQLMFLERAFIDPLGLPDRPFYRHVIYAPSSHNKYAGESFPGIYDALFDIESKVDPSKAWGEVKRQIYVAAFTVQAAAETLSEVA

In the case of `O=C([O-])CN1CCN(CC(=O)[O-])CCN(CC(=O)NCC2CCC(C(=O)NC(Cc3ccc4ccccc4c3)C(=O)NCCCCC(NC(=O)NC(CCC(=O)O)C(=O)O)C(=O)O)CC2)CCN(CC(=O)[O-])CC1.[68Ga+3]` (centres unmarked) [[^68Ga]Ga-PSMA-617], the Tumor uptake in series [1] was 3.41±1.31 %ID/g.

As to `O=C([O-])CN1CCN(CC(=O)[O-])CCN(CC(=O)NCC2CCC(C(=O)NC(Cc3c4ccccc4cc4ccccc34)C(=O)NCCCCC(NC(=O)NC(CCCC(=O)O)C(=O)O)C(=O)O)CC2)CCN(CC(=O)[O-])CC1.[Ga+3]` (centres unmarked) [Ga-HTK03149], the Ki in series [2] is 6.99 ± 0.8 nM.
